In publication PMC11904948, “Peptide‐Drug Conjugate for Therapeutic Reprogramming of Tumor‐Associated Macrophages in Breast Cancer” (Advanced Science, 2025):

Tests used:
[1] = test system: mouse bone marrow‐derived macrophages (BMDM); experiment: Phagocytosis of fluorescent E. coli particles by BMDM; format: cell-based; conditions: 10 µM 4 h, washed, 48 h follow-up, versus MACTIDE treated and untreated BMDM
Description: We then analyzed if MACTIDE‐V affected the phagocytic activity of BMDM in vitro.
For the E. coli phagocytosis assay, cells were cultured in a 96‐well plate and treated with conjugates as previously described (for 4 h at a 10 µM concentration at 37 °C, then peptide conjugates were removed, washed with media and fresh media was added). The phagocytosis assay was performed at 48 h after treatment removal by removing the media, incubating fluorescent E. coli BioParticles for 2 h, followed by a 1 min incubation with trypan blue (Vybrant Phagocytosis Assay Kit, Invitrogen, Cat# V6694). Plates were read at 480 nm excitation and 520 nm emission using a BioTek Synergy H1 plate reader.

[2] = Hepatic and renal toxicity serum levels in healthy mice; format: in vivo; conditions: 48 h after one i.p. dose of 3 mg/Kg, healthy Balb/c mice, n = 4
Description: To investigate potential off‐target risk in vivo caused by MACTIDE‐V we analyzed the serum levels of the hepatic enzyme alanine aminotransferase (ALAT) following a 3 mg Kg^−1 dose of MACTIDE‐V in healthy mice. If MACTIDE‐V causes off‐target inflammation, it would likely occur in the liver (the organ that expresses the MACTIDE receptor) and would reflect on ALAT levels (liver inflammation produces a > 2‐fold increase in ALAT^[ [35] ^]).
Table S1. Hepatic and renal toxicity analysed following one dose of MACTIDE-V. Hepatic and renal toxicology serum levels of Crea and ALAT 48 h after i.p.-administration of MACTIDE-V (3 mg/kg) in healthy Balb/c mice (n=4). Normal ranges were obtained from Mouse Phenome Database by The Jackson Laboratory.

orthotopic 4T1.2 tumors = experiment: MACTIDE-V monotherapy in orthotopic 4T1.2; format: in vivo, Balb/c mice
Description: We evaluated the effect of MACTIDE‐V on tumor progression and metastasis in the highly metastatic orthotopic 4T1.2 model.^[ [33] ^] When tumors reached 55 mm^3 we began the treatment with MACTIDE‐V or CtrlPep‐V every other day until day 23, using the same dose used in section 5. […] No body weight loss was detected in any of the groups (Figure S7, Supporting Information).
Figure 7 MACTIDE‐V slows tumor growth and suppresses lung metastasis in orthotopic 4T1.2. 4T1.2 bearing mice were treated with 9 doses of CtrlPep‐V, MACTIDE‐V (1 mg Kg^−1 in Verteporfin per dose), or PBS i.p. every other day, while monitoring the primary tumor volume (A). Mice were sacrificed on day 25, tumor weights were measured (B) and pulmonary metastasis areas were quantified from H&E sections (C). D–G) Tumor cell suspensions were analyzed by flow cytometry (n = 4 per group). H) Representative mIHC images of PBS, CtrlPep‐V, and MACTIDE‐V treated tumors, scale bar = 100 µm. I) CD8^+ T cells, CD4^+ T cells, and Treg density obtained from mIHC images (n = 6 mice/group), with every dot representing the mean cell density of each tumor obtained from 20 images. Median ± interquartile range. One‐way ANOVA with multiple comparisons, ^* p ≤ 0.05, ^** p ≤ 0.01.
5×10^5 4T1.2 cells in 50 µL of PBS was injected subcutaneously to 4th mammary fat pad. On day 7, mice were sorted into groups based on tumor volume, ≈55—60 mm^3 calculated based on the formula shown above. Mice were treated every other day with 500 µL of MACTIDE‐V, CtrlPep‐V (30 nmol), and PBS, 9 injections in total, n = 10 mice/group. The cumulative Verteporfin dose was 9 mg kg^−1. The last injection was on day 23. Four mice from each group were sacrificed on day 25 through anesthetic overdose and their tumors were analyzed by flow cytometry (FC) and mIHC. The rest of the mice were left to continue in the study with the initial intention of performing a survival study, however, all of these mice were sacrificed within 5 days based on their tumor size (above 1500 mm^3) or cachexia.
For FC, mice were not perfused, the tumors were cut into small pieces, digested using 10 mL of collagenase IV (200 U mL^−1, Gibco, catalog no.17104019), dispase (0.6 U mL^−1, Gibco, catalog no. 17105‐041) and DNase I (15 U mL^−1, AppliChem, catalog no. A3778) mixture on a rotating platform for up to 60 min at 37 °C, pipetting every 10 min. Red blood cells were lysed using 3 mL of ammonium‐chloride‐potassium lysis buffer. After that, cells were centrifuged (350×g, 7 min, +4 °C), filtered (100 µm cell strainer, Falcon, catalog no. 352360), and counted using the bright‐field mode of LUNA Automated Cell counter (Logos Biosystems). Cells were seeded at a concentration of 5×10^6 cells/100 µL of running buffer (RB) (1L of RB: 4 mL 0.5M EDTA + 100 mL FBS + the rest PBS) on the 96‐well conical bottom plate and incubated for 15 min in dark at RT in 50 µL of Zombie NIR Fixable Viability Kit (BioLegend). After that, 30 µL of blocking antibody (TruStain FcX, Biolegend) was added and incubated for 10 min in the dark at +4 °C. Then, to stain macrophages, 20 µL of antibody mixture was added, and incubated for 25 min in the dark at +4 °C after which 50 µL of RB was added, centrifuged, washed two times with 150 µL of RB, and taken up in 150 µL of RB. For intracellular staining, cells were fixed and permeabilized using the eBioscience Foxp3/Transcription Factor Staining Buffer Set (Thermofisher). Cells were then stained with 100 µL of antibody mixture and incubated for 40 min in the dark at RT. Cells were centrifuged, washed twice with 150 µL of RB, and resuspended in 150 µL of RB. Samples were analyzed using the SONY ID7000 spectral flow cytometer and the accompanying software (Table 4 ).
To determine the pulmonary metastatic area, lungs from MACTIDE‐V monotherapy were stained for hematoxylin and eosin according to the following protocol. […]

[3] = tumor flow cytometry, n = 4 per group

Q: What does the source list for “Vert‐Ahx‐G(CTKSIPPIC)SPGAK‐OH (disulfide) [MACTIDE‐V]”?
A: phagocytosis of fluorescently labeled E. coli [1]: significantly higher phagocytosis; Creatinine, serum ([2]; normal range 10-36): 11.8 ± 1 µM; Alanine aminotransferase, serum ([2]; normal range 50-90): 52 ± 10.5 U/I; primary tumor volume (orthotopic 4T1.2 tumors; 9 doses i.p. every other day, 30 nmol (1 mg Kg^−1 in Verteporfin per dose), 4 weeks after tumor induction, versus CtrlPep‐V and PBS): significantly smaller tumor volumes; pulmonary metastasis (orthotopic 4T1.2 tumors; 9 doses i.p. every other day, 1 mg Kg^−1 in Verteporfin per dose, area from H&E sections): fewer pulmonary metastasis; endpoint tumor weights (orthotopic 4T1.2 tumors; 9 doses i.p. every other day, 1 mg Kg^−1 in Verteporfin per dose, sacrifice day 25): smaller endpoint tumor weights; CD4^+ T cell density (mIHC) (orthotopic 4T1.2 tumors; compared to CtrlPep‐V and PBS, n = 6 mice/group): significant increase in CD4^+ T cell density; Treg density (mIHC) (orthotopic 4T1.2 tumors; n = 6 mice/group): no differences in Treg density; MHC II^−CD206^+ subset of TAM/monocytes (orthotopic 4T1.2 tumors; [3]): decreased; PD‐1 expression in CD8^+ and CD4^+ T cells (orthotopic 4T1.2 tumors; [3]): decrease in PD‐1 expression; percentage of MHCII^+CD206^+ TAM/monocytes (orthotopic 4T1.2 tumors; [3]): increased; tumor‐infiltrating B cells (orthotopic 4T1.2 tumors; [3]): no change; proportion of tumor‐infiltrating T cells and NK cells (orthotopic 4T1.2 tumors; tumor flow cytometry, with respect to CtrlPep‐V and PBS, n = 4 per group): rise in the proportion
